Laboratory results published in patent publication US20230365553A1, “COMPOUNDS AND COMPOSITIONS FOR TREATING CONDITIONS ASSOCIATED WITH STING ACTIVITY” (IFM Due, Inc., priority 2020, published 2023).

Target: T1, STING (Homo sapiens, UniProt Q86WV6, G230A/H232R/R293Q/R71H)
T1 construct: host or cells: THP1-Dual KO-IFNAR2 cells
Assay: STING reporter assay: luciferase reporter activity in THP1-Dual KO-IFNAR2 cells stimulated with 2′3′cGAMP
Assay type: cell-based
Settings: 15 μM 2′3′cGAMP, 24h, read-out: hSTING EC50
Description: STING pathway activation by the compounds described herein was measured using THP 1-Dual™ cells (KO-IFNAR2).
THP1-Dual™ KO-IFNAR2 Cells (obtained from invivogen) were maintained in RPMI, 10% FCS, 5 ml P/S, 2 mM L-glut, 10 mM Hepes, and 1 mM sodium pyruvate. Compounds were spotted in empty 384 well tissue culture plates (Greiner 781182) by Echo for a final concentration of 0.0017-100 μM. Cells were plated into the TC plates at 40 μL per well, 2×10E6 cells/mL. For activation with STING ligand, 2′3′cGAMP (MW 718.38, obtained from Invivogen), was prepared in Optimem media.
The following solutions were prepared for each 1×384 plate: • Solution A: 2 mL Optimem with one of the following stimuli: • 60 μL of 10 mM 2′3′cGAMP→150 μM stock • Solution B: 2 mL Optimem with 60 μL Lipofectamine 2000→Incubate 5 min at RT
2 mL of solution A and 2 ml Solution B was mixed and incubated for 20 min at room temperature (RT). 20 μL of transfection solution (A+B) was added on top of the plated cells, with a final 2′3′cGAMP concentration of 15 μM. The plates were then centrifuged immediately at 340 g for 1 minute, after which they were incubated at 37° C., 5% CO2, >98% humidity for 24h. Luciferase reporter activity was then measured. EC50 values were calculated by using standard methods known in the art.
Luciferase reporter assay: 10 μL of supernatant from the assay was transferred to white 384-plate with flat bottom and squared wells. One pouch of QUANTI-Luc™ Plus was dissolved in 25 mL of water. 100 μL of QLC Stabilizer per 25 mL of QUANTI-Luc™ Plus solution was added. 50 μL of QUANTI-Luc™ Plus/QLC solution per well was then added. Luminescence was measured on a Platereader (e.g., Spectramax I3X (Molecular Devices GF3637001)).
Luciferase reporter activity was then measured. EC50 values were calculated by using standard methods known in the art.

T1 sequence (Q86WV6 whole entry R71H/G230A/H232R/R293Q): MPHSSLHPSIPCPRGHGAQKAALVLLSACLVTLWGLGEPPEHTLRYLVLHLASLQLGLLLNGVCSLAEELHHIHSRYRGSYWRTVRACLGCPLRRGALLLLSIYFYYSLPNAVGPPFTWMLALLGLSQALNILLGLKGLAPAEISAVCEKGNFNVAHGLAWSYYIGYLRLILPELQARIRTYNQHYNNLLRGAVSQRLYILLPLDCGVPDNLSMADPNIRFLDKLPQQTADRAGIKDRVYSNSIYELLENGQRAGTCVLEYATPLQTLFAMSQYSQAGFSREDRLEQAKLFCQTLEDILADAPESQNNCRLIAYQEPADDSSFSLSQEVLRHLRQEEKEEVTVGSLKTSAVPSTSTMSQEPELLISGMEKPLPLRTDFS

Structure (SMILES) | EC50 [nM]
O=C(CC(O)C(F)(F)F)Nc1c[nH]c2ccc(-c3cnn(-c4ccc(C(F)(F)F)cc4)c3)cc12 (stereo not shown) [Compound 195, 4,4,4-trifluoro-3-hydroxy-N-(5-(1-(4-(trifluoromethyl)phenyl)-1H-pyrazol-4-yl)-1H-indol-3-yl)butanamide] | 200 to 1000
O=C(Nc1c[nH]c2ccc(-c3cnn(-c4ccc(C(F)(F)F)cc4)c3)cc12)c1cnoc1 [Compound 277, N-(5-(1-(4-(trifluoromethyl)phenyl)-1H-pyrazol-4-yl)-1H-indol-3-yl)isoxazole-4-carboxamide] | 5000 to 100000
O=C(Nc1c[nH]c2ccc(-c3cnn(-c4ccc(C(F)(F)F)cc4)c3)cc12)C1CC(O)C1 (stereo not shown) [Compound 242, 3-hydroxy-N-(5-(1-(4-(trifluoromethyl)phenyl)-1H-pyrazol-4-yl)-1H-indol-3-yl)cyclobutane-1-carboxamide] | 200 to 1000
CCC(=O)Nc1c[nH]c2cc(F)c(-c3cnn(-c4ccc(CC)cc4)c3)cc12 [Compound 103, N-(5-(1-(4-ethylphenyl)-1H-pyrazol-4-yl)-6-fluoro-1H-indol-3-yl)propionamide] | 200 to 1000
CN1C(=O)CCC1C(=O)Nc1c[nH]c2ccc(-c3cnn(-c4ccc(C(F)(F)F)cc4)c3)cc12 (stereo not shown) [Compound 252, 1-methyl-5-oxo-N-(5-(1-(4-(trifluoromethyl)phenyl)-1H-pyrazol-4-yl)-1H-indol-3-yl)pyrrolidine-2-carboxamide] | 1000 to 5000
CC(=O)NC(C(=O)Nc1c[nH]c2ccc(-c3cnn(-c4ccc(C(F)(F)F)cc4)c3)cc12)C(C)C (stereo not shown) [Compound 218, 2-acetamido-3-methyl-N-(5-(1-(4-(trifluoromethyl)phenyl)-1H-pyrazol-4-yl)-1H-indol-3-yl)butanamide] | 1000 to 5000
N#Cc1cc(C(=O)Nc2c[nH]c3ccc(-c4cnn(-c5ccc(C(F)(F)F)cc5)c4)cc23)n[nH]1 [Compound 264, 5-cyano-N-(5-(1-(4-(trifluoromethyl)phenyl)-1H-pyrazol-4-yl)-1H-indol-3-yl)-1H-pyrazole-3-carboxamide] | 1000 to 5000
CCC(=O)Nc1c[nH]c2ccc(-c3cnn(-c4ccc(C(F)(F)F)cn4)c3)cc12 [Compound 105, N-(5-(1-(5-(trifluoromethyl)pyridin-2-yl)-1H-pyrazol-4-yl)-1H-indol-3-yl)propionamide] | 200 to 1000
O=C(Nc1c[nH]c2ccc(-c3cnn(-c4ccc(C(F)(F)F)cc4)c3)cc12)C1CC(F)(F)C1 [Compound 236, 3,3-difluoro-N-(5-(1-(4-(trifluoromethyl)phenyl)-1H-pyrazol-4-yl)-1H-indol-3-yl)cyclobutane-1-carboxamide] | 200 to 1000
O=C(Nc1c[nH]c2ccc(-c3cnn(-c4ccc(C(F)(F)F)cc4)c3)cc12)C1CC(F)C1 (stereo not shown) [Compound 190, 3-fluoro-N-(5-(1-(4-(trifluoromethyl)phenyl)-1H-pyrazol-4-yl)-1H-indol-3-yl)cyclobutane-1-carboxamide] | 5000 to 100000
CC(C)(CO)C(=O)Nc1c[nH]c2ccc(-c3cnn(-c4ccc(C(F)(F)F)cc4)c3)cc12 [Compound 201, 3-hydroxy-2,2-dimethyl-N-(5-(1-(4-(trifluoromethyl)phenyl)-1H-pyrazol-4-yl)-1H-indol-3-yl)propanamide] | 1000 to 5000
CCc1ccc(-n2cc(-c3ccc4[nH]cc(NC(=O)C(O)C(F)(F)F)c4c3)cn2)cc1 (stereo not shown) [Compound 166, N-(5-(1-(4-ethylphenyl)-1H-pyrazol-4-yl)-1H-indol-3-yl)-3,3,3-trifluoro-2-hydroxypropanamide] | 1000 to 5000
N#CC1(C(=O)Nc2c[nH]c3ccc(-c4cnn(-c5ccc(C(F)(F)F)cc5)c4)cc23)CCC1 [Compound 229, 1-cyano-N-(5-(1-(4-(trifluoromethyl)phenyl)-1H-pyrazol-4-yl)-1H-indol-3-yl)cyclobutane-1-carboxamide] | 1000 to 5000
CC(=O)NC(C)C(=O)Nc1c[nH]c2ccc(-c3cnn(-c4ccc(C(F)(F)F)cc4)c3)cc12 (stereo not shown) [Compound 215, 2-acetamido-N-(5-(1-(4-(trifluoromethyl)phenyl)-1H-pyrazol-4-yl)-1H-indol-3-yl)propanamide] | 1000 to 5000
CCC(=O)Nc1c[nH]c2ccc(-c3cnn(-c4ccccn4)c3)cc12 [Compound 138, N-(5-(1-(pyridin-2-yl)-1H-pyrazol-4-yl)-1H-indol-3-yl)propionamide] | 5000 to 100000
O=C(Nc1c[nH]c2ccc(-c3cnn(-c4ccc(C(F)(F)F)cc4)c3)cc12)c1ccno1 [Compound 262, N-(5-(1-(4-(trifluoromethyl)phenyl)-1H-pyrazol-4-yl)-1H-indol-3-yl)isoxazole-5-carboxamide] | 200 to 1000

Structure (SMILES) | EC50 [nM]
CN1C(=O)CC[C@H]1C(=O)Nc1c[nH]c2ccc(-c3cnn(-c4ccc(C(F)(F)F)cc4)c3)cc12 [Compound 209, (S)-1-methyl-5-oxo-N-(5-(1-(4-(trifluoromethyl)phenyl)-1H-pyrazol-4-yl)-1H-indol-3-yl)pyrrolidine-2-carboxamide] | 5000 to 100000
O=C(Nc1c[nH]c2ccc(-c3cnn(-c4ccc(C(F)(F)F)cc4)c3)cc12)c1cncs1 [Compound 268, N-(5-(1-(4-(trifluoromethyl)phenyl)-1H-pyrazol-4-yl)-1H-indol-3-yl)thiazole-5-carboxamide] | 200 to 1000
O=C1CCC(C(=O)Nc2c[nH]c3ccc(-c4cnn(-c5ccc(C(F)(F)F)cc5)c4)cc23)=NN1 [Compound 234, 6-oxo-N-(5-(1-(4-(trifluoromethyl)phenyl)-1H-pyrazol-4-yl)-1H-indol-3-yl)-1,4,5,6-tetrahydropyridazine-3-carboxamide] | 1000 to 5000
CC(=O)NCC(C)(C)C(=O)Nc1c[nH]c2ccc(-c3cnn(-c4ccc(C(F)(F)F)cc4)c3)cc12 [Compound 208, 3-acetamido-2,2-dimethyl-N-(5-(1-(4-(trifluoromethyl)phenyl)-1H-pyrazol-4-yl)-1H-indol-3-yl)propanamide] | 1000 to 5000
CCc1ccc(-n2cc(-c3ccc4[nH]cc(NC(=O)C5CCC5)c4c3)cn2)cc1 [Compound 124, N-(5-(1-(4-ethylphenyl)-1H-pyrazol-4-yl)-1H-indol-3-yl)cyclobutanecarboxamide] | 40 to 200
CCC(=O)Nc1c[nH]c2ccc(-c3cnn(-c4ccc(CC(F)(F)F)cc4)c3)cc12 [Compound 102, N-(5-(1-(4-(2,2,2-trifluoroethyl)phenyl)-1H-pyrazol-4-yl)-1H-indol-3-yl)propionamide] | 200 to 1000
CCC(=O)Nc1c[nH]c2ccc(-c3cnn(-c4ccc(Cl)cc4)c3)cc12 [Compound 119, N-(5-(1-(4-chlorophenyl)-1H-pyrazol-4-yl)-1H-indol-3-yl)propionamide] | 200 to 1000
CCc1ccc(-n2cc(-c3ccc4[nH]cc(NC(=O)C5COC5)c4c3)cn2)cc1 [Compound 112, N-(5-(1-(4-ethylphenyl)-1H-pyrazol-4-yl)-1H-indol-3-yl)oxetane-3-carboxamide] | 200 to 1000
O=C(Nc1c[nH]c2ccc(-c3cnn(-c4ccc(C(F)(F)F)cc4)c3)cc12)c1cocn1 [Compound 267, N-(5-(1-(4-(trifluoromethyl)phenyl)-1H-pyrazol-4-yl)-1H-indol-3-yl)oxazole-4-carboxamide] | 200 to 1000
CCc1ccc(-n2cc(-c3ccc4[nH]cc(NC(=O)C5CCCO5)c4c3)cn2)cc1 (stereo not shown) [Compound 122, N-(5-(1-(4-ethylphenyl)-1H-pyrazol-4-yl)-1H-indol-3-yl)tetrahydrofuran-2-carboxamide] | 200 to 1000
CCC(=O)Nc1c[nH]c2ccc(-c3ccc(N4CCCC4)nc3)cc12 [Compound 147, N-(5-(6-(pyrrolidin-1-yl)pyridin-3-yl)-1H-indol-3-yl)propionamide] | 5000 to 100000
O=C(Nc1c[nH]c2ccc(-c3cnn(-c4ccc(C(F)(F)F)cc4)c3)cc12)c1ccon1 [Compound 280, N-(5-(1-(4-(trifluoromethyl)phenyl)-1H-pyrazol-4-yl)-1H-indol-3-yl)isoxazole-3-carboxamide] | 200 to 1000
O=C(Nc1c[nH]c2ccc(-c3cnn(-c4ccc(C(F)(F)F)cc4)c3)cc12)C1CS(=O)(=O)C1 [Compound 213, N-(5-(1-(4-(trifluoromethyl)phenyl)-1H-pyrazol-4-yl)-1H-indol-3-yl)thietane-3-carboxamide 1,1-dioxide] | 200 to 1000
O=C(Nc1c[nH]c2ccc(-c3cnn(-c4ccc(C(F)(F)F)cc4)c3)cc12)C1(O)CCCCC1 [Compound 187, 1-hydroxy-N-(5-(1-(4-(trifluoromethyl)phenyl)-1H-pyrazol-4-yl)-1H-indol-3-yl)cyclohexane-1-carboxamide] | 200 to 1000
O=C1NCCC1C(=O)Nc1c[nH]c2ccc(-c3cnn(-c4ccc(C(F)(F)F)cc4)c3)cc12 (stereo not shown) [Compound 210, 2-oxo-N-(5-(1-(4-(trifluoromethyl)phenyl)-1H-pyrazol-4-yl)-1H-indol-3-yl)pyrrolidine-3-carboxamide] | 5000 to 100000
